{
  "source": "patent US4279898A",
  "about": "“In vivo inhibitors of cholesterol biosynthesis” (Research Foundation of the City University of New York, priority 1980, dated 1981)",
  "origin": "cited, not measured here",
  "tested_on": "5-phosphomevalonate kinase",
  "conditions": "publications by the inventors",
  "data": [
    {"smiles": "CC(O)(CCCP(=O)(O)O)CC(=O)O", "note": "(stereo not shown) [5-carboxy-4-hydroxy-4-methylpentyl-1-phosphonic acid]", "values": [
      {"measurement": "inhibition of 5-phosphomevalonate kinase", "result": "inhibition"}
    ]}
  ]
}
